Each structure is given as a SMILES string.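 Protocol summary: plate cells (96-well), add compound at 5 concentrations, incubate 48 h, interpolate endpoints linearly. Here, GI50 denotes the concentration required for 50% inhibition of growth.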 The source made the active and inactive calls. Cut-off read from the data, not from the text of the source: active = GI50 up to about 1.1 µM and inactive = higher.

Some test systems named below: 786-0; COLO 205; HCT-15; HL-60; HOP-92; Malme-3M; NCI-H23; OVCAR-3; RPMI-8226; RXF 393; SF-295; SK-OV-3; SN12C; SNB-75; TK-10; UACC-62; SNB-19; SR.
Holding throughout (experiment): inhibition of tumour cell growth, NCI panel, 48 h

As for `Cc1nc(-n2nc(-c3ccccc3)cc2-c2ccccc2)sc1C(=O)/C=C/c1ccc(Cl)cc1`, the GI50 in the experiment on 786-0 is 14.4 µM (inactive); with COLO 205, 16.5 µM (inactive); in the experiment on HCT-15, 22.2 µM; in the experiment with HL-60 it was 14.5 µM (inactive); in the experiment on HOP-92 it was 18.4 µM (inactive); with Malme-3M it was 22.4 µM (inactive). The GI50 in the experiment on NCI-H23 is 16.3 µM (inactive); with OVCAR-3, 15.9 µM (inactive); in the experiment with RPMI-8226, 5.66 µM (inactive); in the experiment with RXF 393, 12.7 µM (inactive); with SF-295, 15.3 µM (inactive); with SK-OV-3, 28.1 µM (inactive). For the same compound, the GI50 was 25.6 µM (inactive) with SN12C, 6.1 µM (inactive) with SNB-75, 38.1 µM (inactive) in the experiment on TK-10 and 14.1 µM (inactive) in the experiment on UACC-62.

For the compound `CCOC(=O)C(=O)C1C(=O)Nc2ccccc21` (stereo not drawn), the GI50 with 786-0 is > 100 µM (inactive); in the experiment with COLO 205, > 100 µM (inactive); in the experiment on HL-60, > 100 µM (inactive); in the experiment on HOP-92, 50.8 µM (inactive); with Malme-3M it was > 100 µM (inactive); in the experiment on NCI-H23 it was > 100 µM (inactive). Besides, the GI50 with OVCAR-3, in the experiment with RPMI-8226, in the experiment on RXF 393, in the experiment with SF-295, in the experiment on SN12C and in the experiment on SNB-19 was > 100 µM (inactive) throughout. For the same compound, the GI50 in the experiment on SNB-75, in the experiment with TK-10 and in the experiment with UACC-62 was > 100 µM (inactive) in each case.

Take `CCCCCC1CC=CC(NC(=O)OCc2ccccc2)C1/C=C/CCCC1OCCO1` (stereo not drawn): the GI50 in the experiment with 786-0 is > 100 µM (inactive); in the experiment with COLO 205, 44.2 µM (inactive); in the experiment with HCT-15, 86.7 µM; in the experiment with HL-60, 7.93 µM (inactive); in the experiment with HOP-92 it was > 45.7 µM (inactive); in the experiment on Malme-3M, 50.6 µM (inactive). The GI50 in the experiment with NCI-H23 is 44.7 µM (inactive); in the experiment with OVCAR-3, 38.5 µM (inactive); with RPMI-8226, 17.9 µM (inactive); in the experiment on RXF 393, 15.1 µM (inactive); with SF-295 it was 66.5 µM (inactive); in the experiment on SK-OV-3, > 100 µM (inactive). In addition, the GI50 in the experiment on SN12C is > 100 µM (inactive); with SNB-19, 74.1 µM (inactive); in the experiment with SNB-75, > 56 µM (inactive); in the experiment on TK-10, 97.7 µM (inactive); in the experiment with UACC-62, > 93.5 µM (inactive).

Turning to `Cn1ncc(=S)[nH]c1=S`, the GI50 in the experiment with 786-0 was > 100 µM (inactive); in the experiment on COLO 205 it was > 100 µM (inactive); in the experiment on HCT-15, above 100 µM; with HOP-92, > 100 µM (inactive); with Malme-3M it was > 100 µM (inactive); in the experiment with NCI-H23, > 100 µM (inactive). For the same compound, the GI50 in the experiment with OVCAR-3, with RPMI-8226, in the experiment on RXF 393, in the experiment with SF-295, in the experiment on SK-OV-3 and in the experiment on SN12C was > 100 µM (inactive) throughout. Besides, the GI50 was > 100 µM (inactive) in the experiment on SNB-19, 97.7 µM (inactive) in the experiment on SNB-75, > 100 µM (inactive) in the experiment on TK-10 and > 100 µM (inactive) with UACC-62.

On to `CCCCCn1cnc2c1S(=O)(=O)N(C)C(NC(=O)c1ccccc1)=N2`, for which the GI50 was > 100 µM (inactive) in the experiment on 786-0; > 100 µM (inactive) in the experiment on COLO 205; above 100 µM in the experiment with HCT-15; > 100 µM (inactive) with HL-60; > 100 µM (inactive) with HOP-92; > 100 µM (inactive) with NCI-H23. Moreover, the GI50 in the experiment with OVCAR-3, with RPMI-8226, in the experiment with SF-295, in the experiment with SK-OV-3, in the experiment on SN12C and in the experiment on SNB-19 was > 100 µM (inactive) each time. Also, the GI50 with SNB-75, in the experiment with SR, in the experiment with TK-10 and in the experiment on UACC-62 was > 100 µM (inactive) throughout.

With `Cc1ccc(S(=O)(=O)NNS(C)(=O)=O)cc1`, the GI50 was > 100 µM (inactive) with 786-0; > 100 µM (inactive) with COLO 205; above 100 µM in the experiment on HCT-15; > 100 µM (inactive) with Malme-3M; > 100 µM (inactive) in the experiment with NCI-H23; > 100 µM (inactive) in the experiment with OVCAR-3. Also, the GI50 in the experiment on RPMI-8226, in the experiment on RXF 393, with SF-295, with SN12C, with SNB-19 and in the experiment on SNB-75 was > 100 µM (inactive) each time. In addition, the GI50 with SR, with TK-10 and in the experiment on UACC-62 was > 100 µM (inactive) in each case.

On to `CCOc1ccccc1NC(=O)CCc1n[nH]c(=S)o1`, for which the GI50 in the experiment with 786-0, with HL-60, with HOP-92, with Malme-3M, with NCI-H23 and in the experiment with OVCAR-3 was > 100 µM (inactive) in each case. The GI50 with RPMI-8226, in the experiment on SF-295, in the experiment on SK-OV-3, in the experiment on SN12C, in the experiment with SNB-19 and with SNB-75 was > 100 µM (inactive) throughout. Moreover, the GI50 with SR, in the experiment on TK-10 and with UACC-62 was > 100 µM (inactive) throughout.

For `Nc1nc(SCc2ccc([N+](=O)[O-])cc2)nc2c1ncn2C1OC(CO)C(O)C1O` (stereo not drawn), the GI50 in the experiment with 786-0 was > 100 µM (inactive); with COLO 205, > 100 µM (inactive); in the experiment with HCT-15, above 100 µM; in the experiment with HL-60 it was > 100 µM (inactive); in the experiment with Malme-3M it was > 100 µM (inactive); in the experiment on NCI-H23, > 100 µM (inactive). For the same compound, the GI50 in the experiment with OVCAR-3 was > 100 µM (inactive); with RPMI-8226, > 100 µM (inactive); with RXF 393 it was > 100 µM (inactive); with SF-295 it was > 100 µM (inactive); in the experiment with SN12C it was 96.6 µM (inactive); with SNB-19, > 100 µM (inactive). Besides, the GI50 in the experiment with SR and in the experiment with TK-10 was > 100 µM (inactive) in each case.

For the compound `Cc1cccc(C)c1NC(=O)C(=O)Cc1nc2ccccc2s1`, the GI50 was > 100 µM (inactive) in the experiment on 786-0; > 100 µM (inactive) in the experiment with COLO 205; above 100 µM with HCT-15; > 100 µM (inactive) with HL-60; > 100 µM (inactive) in the experiment on HOP-92; > 100 µM (inactive) with Malme-3M. Further, the GI50 with NCI-H23 is > 100 µM (inactive); in the experiment on OVCAR-3, > 100 µM (inactive); in the experiment with RPMI-8226, > 100 µM (inactive); in the experiment with RXF 393 it was 50.9 µM (inactive); in the experiment with SF-295, > 100 µM (inactive); with SK-OV-3, > 100 µM (inactive). In addition, the GI50 in the experiment on SN12C is > 100 µM (inactive); in the experiment on SNB-19 it was > 100 µM (inactive); with SNB-75 it was 27.5 µM (inactive); in the experiment on TK-10 it was > 100 µM (inactive); with UACC-62, > 100 µM (inactive).

Take `CC(c1ccccc1)N1CC(C)(c2ccccc2)N(O)C(c2ccccc2)C1C` (stereo not drawn): the GI50 is 5.92 µM (inactive) in the experiment with 786-0; 11.1 µM (inactive) with COLO 205; 3.52 µM (inactive) in the experiment on HL-60; 2.21 µM (inactive) in the experiment on HOP-92; 18.8 µM (inactive) in the experiment on Malme-3M; 8.04 µM (inactive) in the experiment on NCI-H23. Further, the GI50 with OVCAR-3 is 11.6 µM (inactive); in the experiment on RPMI-8226, 3.75 µM (inactive); with RXF 393, 4.41 µM (inactive); with SF-295, 7.85 µM (inactive); in the experiment with SK-OV-3, 22.8 µM (inactive); in the experiment on SNB-19 it was 5.92 µM (inactive). For the same compound, the GI50 was 6.03 µM (inactive) with SNB-75 and 17.1 µM (inactive) with TK-10.

On to `O=S1(=O)c2ccccc2N=C(c2ccccc2Cl)CC1c1ccc(F)cc1` (stereo not drawn), for which the GI50 in the experiment on 786-0 is 16.6 µM (inactive); in the experiment with COLO 205, 21.5 µM (inactive); in the experiment on HCT-15, 18.1 µM; with HL-60, 14.5 µM (inactive); in the experiment on HOP-92, 17.7 µM (inactive); with Malme-3M it was 20 µM (inactive). The GI50 in the experiment on NCI-H23 was 17.1 µM (inactive); in the experiment with OVCAR-3, 14.3 µM (inactive); with RPMI-8226, 3.4 µM (inactive); with RXF 393, 6.68 µM (inactive); in the experiment on SF-295, 18.2 µM (inactive); in the experiment with SK-OV-3 it was 43.2 µM (inactive). Further, the GI50 is 15.2 µM (inactive) in the experiment on SN12C; 16.8 µM (inactive) in the experiment with SNB-19; 25.5 µM (inactive) in the experiment on SNB-75; 22.5 µM (inactive) with TK-10; 15.8 µM (inactive) in the experiment with UACC-62.

As for `CC1=Nn2c(nnc2-c2ccccc2Cl)NC(C)(C)C1`, the GI50 in the experiment on 786-0 is > 100 µM (inactive); in the experiment on COLO 205 it was 54.2 µM (inactive); in the experiment on HCT-15, 51.9 µM; in the experiment with HL-60, 50.9 µM (inactive); in the experiment on HOP-92, > 100 µM (inactive); in the experiment with NCI-H23, > 100 µM (inactive). In addition, the GI50 in the experiment with RPMI-8226 is 26.1 µM (inactive); in the experiment with SF-295, > 100 µM (inactive); in the experiment with SK-OV-3 it was > 100 µM (inactive); in the experiment with SN12C it was > 100 µM (inactive); in the experiment on SNB-19, > 100 µM (inactive); with SNB-75, > 100 µM (inactive). The GI50 in the experiment with SR is 25.5 µM (inactive); in the experiment with TK-10, > 100 µM (inactive); with UACC-62, > 100 µM (inactive).

With `C=CC/C=C/C/C=C/CCCCCCCc1cccc(O)c1C(=O)O`, the GI50 in the experiment with 786-0 is > 100 µM (inactive); in the experiment with COLO 205 it was > 100 µM (inactive); in the experiment with HCT-15 it was 48 µM; in the experiment on HL-60, > 100 µM (inactive); with HOP-92, 23.7 µM (inactive); in the experiment with Malme-3M it was 47.6 µM (inactive). Further, the GI50 in the experiment with NCI-H23 is 29.6 µM (inactive); in the experiment on OVCAR-3, 35.4 µM (inactive); in the experiment on RPMI-8226 it was 40.2 µM (inactive); in the experiment with SF-295 it was > 100 µM (inactive); with SK-OV-3 it was 25.2 µM (inactive); with SNB-19 it was 34.9 µM (inactive). In addition, the GI50 is 43.4 µM (inactive) in the experiment with SNB-75, > 100 µM (inactive) in the experiment with SR, 54.7 µM (inactive) with TK-10 and 31.1 µM (inactive) in the experiment with UACC-62.

Source of the values: ChEMBL document CHEMBL1201862, “PubChem BioAssay data set” (2004).
